Measurements from patent EP1519709B1, “NOVEL COSMETIC APPLICATIONS OF POLYPHENOLS AND DERIVATIVES THEREOF” (Caudalie, priority 2002, dated 2004).
Like-named read-outs stand apart in the source and are kept apart here.

Molecular target: tyrosinase (enzyme EC 1.14.18,1, issue de champignon)
Test: Tyrosinase inhibition test (L-dopa to dopachrome, read at 475 nm)
Assay type: biochemical
Conditions: for IC50: read-out: CI50 (the source's name)
Procedure: Mélange A : l'échantillon à tester à différentes concentrations (200 μL), ainsi qu'un "contrôle" (tampon phosphate, pH 6,5), sont incubés pendant 30 minutes à 37°C en présence de tyrosinase (enzyme EC 1.14.18,1, issue de champignon; 200μL, 300 U/mL). Mélange B : 200 μL de L-dopa (2,5 mM) sont additionnés à 400 μL de tampon phosphate (pH 6,5). Après les 30 minutes d'incubation, le mélange A est ajouté au mélange B et la dopachrome produite est mesurée à 475 nm au bout d'une minute […].

[1] = mushroom tyrosinase 300 U/mL, 30 min preincubation at 37°C, phosphate buffer pH 6,5, L-dopa 2,5 mM, dopachrome at 475 nm, mean with spread, n in cell

| SMILES | IC50 [1] | also measured |
| --- | --- | --- |
| Oc1ccc(/C=C/c2cc(O)cc3c2[C@@H](c2cc(O)cc(O)c2)[C@H](c2ccc(O)cc2)O3)cc1 [Bloc VIII, ε-viniférine] |  | IC50 of the dimer relative to that of the monomer (resvératrol) (tyrosinase inhibition test): < 10 fois |
| Oc1ccc(C=Cc2cc(O)cc(O)c2)cc1 [II] | 61.4 µM |  |
| Oc1ccc(C=Cc2cc(O)cc3c2C(c2cc(O)cc(O)c2)C(c2ccc(O)cc2)O3)cc1 (stereo not shown) [VIII] | 10.4 µM |  |
| Oc1ccc(C=Cc2cc(O)cc(O)c2)cc1 [Bloc II, resvératrol, reference compound] |  | IC50 (bounds stated in running text for the tyrosinase inhibition tests under the conditions of the examples): > 60 µM |
